Data published in patent publication US20230092890A1, “1, 3, 4-Oxadiazole derivative compounds as histone deacetylase 6 inhibitor, and the pharmaceutical composition comprising the same” (Chong Kun Dang Pharmaceutical Corp., priority 2019, published 2023).

Legend:
[1] = molecular target: T1, HDAC6 human recombinant (Homo sapiens, UniProt Q9UBN7); test: HDAC enzyme activity inhibition (in vitro), HDAC6 assay; type: biochemical; conditions: samples at 0.1, 1, 10, 100 and 1000 nM; 37° C. 60 minutes; fluorescence Ex 390, Em 460; read-out: HDAC6 IC50
T1 construct: purchased Calbiochem 382180
T1 sequence (Q9UBN7 1-1215): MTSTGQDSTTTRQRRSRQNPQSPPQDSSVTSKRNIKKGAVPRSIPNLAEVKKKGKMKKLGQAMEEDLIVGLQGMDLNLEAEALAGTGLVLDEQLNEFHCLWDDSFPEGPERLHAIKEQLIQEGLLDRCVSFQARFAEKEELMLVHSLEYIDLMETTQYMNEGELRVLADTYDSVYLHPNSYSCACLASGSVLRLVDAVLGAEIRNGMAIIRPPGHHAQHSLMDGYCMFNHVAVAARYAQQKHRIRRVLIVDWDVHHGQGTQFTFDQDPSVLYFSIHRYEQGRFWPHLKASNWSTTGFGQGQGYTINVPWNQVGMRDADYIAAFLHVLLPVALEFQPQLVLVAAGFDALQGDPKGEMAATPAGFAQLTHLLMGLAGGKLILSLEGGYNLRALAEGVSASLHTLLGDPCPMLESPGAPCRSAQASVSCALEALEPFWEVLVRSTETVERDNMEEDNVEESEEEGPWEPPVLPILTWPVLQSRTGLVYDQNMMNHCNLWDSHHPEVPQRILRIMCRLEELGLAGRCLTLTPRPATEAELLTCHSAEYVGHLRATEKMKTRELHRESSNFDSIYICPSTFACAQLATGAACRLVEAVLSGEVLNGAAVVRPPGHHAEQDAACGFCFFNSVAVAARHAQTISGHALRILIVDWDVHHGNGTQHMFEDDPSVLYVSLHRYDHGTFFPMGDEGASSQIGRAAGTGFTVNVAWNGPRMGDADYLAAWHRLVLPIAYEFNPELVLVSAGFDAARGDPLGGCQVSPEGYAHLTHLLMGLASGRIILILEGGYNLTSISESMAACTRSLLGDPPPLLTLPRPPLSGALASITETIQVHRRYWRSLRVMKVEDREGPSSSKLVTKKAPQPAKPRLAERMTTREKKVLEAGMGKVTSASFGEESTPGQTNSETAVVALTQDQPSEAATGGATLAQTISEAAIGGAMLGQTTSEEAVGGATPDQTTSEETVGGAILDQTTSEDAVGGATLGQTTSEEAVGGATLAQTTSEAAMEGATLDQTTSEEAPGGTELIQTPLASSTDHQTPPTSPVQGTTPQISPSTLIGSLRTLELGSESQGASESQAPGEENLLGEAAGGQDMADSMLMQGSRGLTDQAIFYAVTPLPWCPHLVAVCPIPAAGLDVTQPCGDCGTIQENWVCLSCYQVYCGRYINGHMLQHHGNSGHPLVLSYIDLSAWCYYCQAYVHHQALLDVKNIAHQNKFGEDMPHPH
In short: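 HDAC6 human recombinant enzyme with fluorimetric substrate; […]. Reaction 60 min at 37° C, then developer 30 min at 37° C; fluorescence read at Ex 390/Em 460.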

[2] = molecular target: T2, HDAC1 (Homo sapiens, UniProt Q13547); test: HDAC enzyme activity inhibition (in vitro), HDAC1 Fluorimetric Drug Discovery Assay Kit; type: biochemical; conditions: samples at 100, 1000 and 10000 nM; 37° C. 60 minutes; fluorescence Ex 390, Em 460; read-out: HDAC1 IC50
T2 construct: purchased Enzolifesciences BML-AK511
T2 sequence (Q13547 whole entry): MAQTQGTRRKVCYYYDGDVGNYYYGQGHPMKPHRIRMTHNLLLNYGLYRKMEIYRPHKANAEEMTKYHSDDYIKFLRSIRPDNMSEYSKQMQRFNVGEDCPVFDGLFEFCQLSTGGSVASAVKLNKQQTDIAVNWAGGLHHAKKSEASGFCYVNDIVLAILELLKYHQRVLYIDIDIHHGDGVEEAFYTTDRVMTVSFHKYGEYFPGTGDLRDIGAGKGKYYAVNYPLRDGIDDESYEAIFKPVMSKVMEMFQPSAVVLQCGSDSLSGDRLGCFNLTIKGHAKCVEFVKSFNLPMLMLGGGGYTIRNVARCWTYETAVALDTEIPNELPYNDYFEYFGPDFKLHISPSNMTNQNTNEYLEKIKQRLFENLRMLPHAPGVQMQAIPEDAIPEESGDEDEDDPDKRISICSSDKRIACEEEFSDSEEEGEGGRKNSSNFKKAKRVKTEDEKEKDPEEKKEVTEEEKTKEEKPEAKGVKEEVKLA
In short: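 Compound incubated with enzyme 60 min at 37° C, then developer 30 min at 37° C; fluorescence read at Ex 390/Em 460. HDAC1 via fluorimetric kit, compounds at 100, 1000 and 10000 nM; HDAC6 human recombinant, compounds at 0.1, 1, 10, 100 and 1000 nM.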

## CN1CCC(n2c(=O)n(Cc3ccc(-c4nnc(C(F)F)o4)cn3)c3ncccc32)CC1 [Compound 107, 3-((5-(5-(difluoromethyl)-1,3,4-oxadiazole-2-yl)pyridine-2-yl)methyl)-1-(1-methylpiperidine-4-yl)-1,3-dihydro-2H-imidazo[4,5-b]pyridine-2-one]
[1]
  IC50: 174 nM
[2]
  IC50: > 10000 nM

## CCN1CCC(n2c(=O)n(Cc3ccc(-c4nnc(C(F)F)o4)cn3)c3ccc(F)cc32)CC1 [Compound 40, 1-((5-(5-(difluoromethyl)-1,3,4-oxadiazole-2-yl)pyridine-2-yl)methyl)-3-(1-ethylpiperidine-4-yl)-5-fluoro-1,3-dihydro-2H-benzo[d]imidazole-2-one]
[1]
  IC50: 155 nM
[2]
  IC50: > 10000 nM

## CN1CCC(n2c(=O)n(Cc3ccc(-c4nnc(C(F)F)o4)cn3)c3cc(F)c(-c4ccncc4)cc32)CC1 [Compound 153, 1-((5-(5-(difluoromethyl)-1,3,4-oxadiazole-2-yl)pyridine-2-yl)methyl)-6-fluoro-3-(1-methylpiperidine-4-yl)-5-(pyridine-4-yl)-1,3-dihydro-2H-benzo[d]imidazole-2-one]
[1]
  IC50: 16 nM
[2]
  IC50: > 10000 nM

## O=c1oc2cc(-c3ccncc3)ccc2n1Cc1ccc(-c2nnc(C(F)F)o2)cn1 [Compound 305, 3-((5-(5-(difluoromethyl)-1,3,4-oxadiazole-2-yl)pyridine-2-yl)methyl)-6-(pyridine-4-yl) benzo[d]oxazole-2(3H)-one]
[1]
  IC50: 50 nM
[2]
  IC50: > 10000 nM

## O=c1n(CCN2CC3(COC3)C2)c2ccccc2n1Cc1ccc(-c2nnc(C(F)F)o2)cn1 [Compound 25, 1-(2-(2-oxa-6-azaspiro[3.3]heptane-6-yl)ethyl)-3-((5-(5-(difluoromethyl)-1,3,4-oxadiazole-2-yl)pyridine-2-yl)methyl)-1,3-dihydro-2H-benzo[d]imidazole-2-one]
[1]
  IC50: 84 nM
[2]
  IC50: > 10000 nM

## O=c1n(Cc2ccc(-c3nnc(C(F)F)o3)cc2F)c2ccccc2n1C1COC1 [Compound 37, 1-(4-(5-(difluoromethyl)-1,3,4-oxadiazole-2-yl)-2-fluorobenzyl)-3-(oxetan-3-yl)-1,3-dihydro-2H-benzo[d]imidazole-2-one]
[1]
  IC50: 158 nM
[2]
  IC50: > 10000 nM

## Cn1c(=O)n(Cc2ccc(-c3nnc(C(F)F)o3)cn2)c2cc(F)c(-c3ccc(C(F)(F)F)cc3)cc21 [Compound 167, 1-((5-(5-(difluoromethyl)-1,3,4-oxadiazole-2-yl)pyridine-2-yl)methyl)-6-fluoro-3-methy 1-5-(4-(trifluoromethyl)phenyl)-1,3-dihydro-2H-benzo[d]imidazole-2-one]
[1]
  IC50: 138 nM
[2]
  IC50: > 10000 nM

## CS(=O)(=O)N1CCC(n2c(=O)n(Cc3ccc(-c4nnc(C(F)F)o4)cn3)c3cc(Cl)ccc32)CC1 [Compound 216, 5-chloro-3-((5-(5-(difluoromethyl)-1,3,4-oxadiazole-2-yl)pyridine-2-yl)methyl)-1-(1-(methylsulfonyl)piperidine-4-yl)-1,3-dihydro-2H-benzo[d]imidazole-2-one]
[1]
  IC50: 18 nM
[2]
  IC50: > 10000 nM

## CN1CCC(n2c(=O)n(Cc3ccc(-c4nnc(C(F)F)o4)cn3)c3cc(-c4cccnc4)ccc32)CC1 [Compound 145, 3-((5-(5-(difluoromethyl)-1,3,4-oxadiazole-2-yl)pyridine-2-yl)methyl)-1-(1-methylpiperidine-4-yl)-5-(pyridine-3-yl)-1,3-dihydro-2H-benzo[d]imidazole-2-one]
[1]
  IC50: 315 nM
[2]
  IC50: > 10000 nM

## CN1CCC(n2c(=O)n(Cc3ccc(-c4nnc(C(F)F)o4)cn3)c3cc(F)c(-c4cccnc4)cc32)CC1 [Compound 155, 1-((5-(5-(difluoromethyl)-1,3,4-oxadiazole-2-yl)pyridine-2-yl)methyl)-6-fluoro-3-(1-methylpiperidine-4-yl)-5-(pyridine-3-yl)-1,3-dihydro-2H-benzo[d]imidazole-2-one]
[1]
  IC50: 20 nM
[2]
  IC50: > 10000 nM

## CC(=O)N1CCC(n2c(=O)n(Cc3ccc(-c4nnc(C(F)F)o4)cn3)c3cc(F)ccc32)CC1 [Compound 60, 1-(1-acetylpiperidine-4-yl)-3-((5-(5-(difluoromethyl)-1,3,4-oxadiazole-2-yl)pyridine-2-yl)methyl)-5-fluoro-1,3-dihydro-2H-benzo[d]imidazole-2-one]
[1]
  IC50: 31 nM
[2]
  IC50: > 10000 nM

## O=c1oc2cc(Cl)c(-c3cccnc3)cc2n1Cc1ccc(-c2nnc(C(F)F)o2)cn1 [Compound 229, 6-chloro-3-((5-(5-(difluoromethyl)-1,3,4-oxadiazole-2-yl)pyridine-2-yl)methyl)-5-(pyridine-3-yl)benzo[d]oxazole-2(3H)-one]
[1]
  IC50: 312 nM
[2]
  IC50: > 10000 nM

## CN1CCC(n2c(=O)n(Cc3ccc(-c4nnc(C(F)F)o4)cn3)c3cc(F)c(-c4cccc5[nH]ccc45)cc32)CC1 [Compound 217, 1-((5-(5-(difluoromethyl)-1,3,4-oxadiazole-2-yl)pyridine-2-yl)methyl)-6-fluoro-5-(1H-indole-4-yl)-3-(1-methylpiperidine-4-yl)-1,3-dihydro-2H-benzo[d]imidazole-2-one]
[1]
  IC50: 6 nM
[2]
  IC50: > 10000 nM

## CN1CCC(c2ccc3c(c2)n(C2CCN(C)CC2)c(=O)n3Cc2ccc(-c3nnc(C(F)F)o3)cn2)CC1 [Compound 199, 1-((5-(5-(difluoromethyl)-1,3,4-oxadiazole-2-yl)pyridine-2-yl)methyl)-3,5-bis(1-methylpiperidine-4-yl)-1,3-dihydro-2H-benzo[d]imidazole-2-one]
[1]
  IC50: 175 nM
[2]
  IC50: > 10000 nM

## O=c1oc2ccccc2n1Cc1ccc(-c2nnc(C(F)F)o2)cn1 [Compound 246, 3-((5-(5-(difluoromethyl)-1,3,4-oxadiazole-2-yl)pyridine-2-yl)methyl)benzo[d]oxazole-2(3H)-one]
[1]
  IC50: 23 nM
[2]
  IC50: > 10000 nM

## CN1CCC(n2c(=O)n(Cc3ccc(-c4nnc(C(F)F)o4)cn3)c3ccc(-c4ccoc4)cc32)CC1 [Compound 137, 1-((5-(5-(difluoromethyl)-1,3,4-oxadiazole-2-yl)pyridine-2-yl)methyl)-5-(furan-3-yl)-3-(1-methylpiperidine-4-yl)-1,3-dihydro-2H-benzo[d]imidazole-2-one]
[1]
  IC50: 19 nM
[2]
  IC50: > 10000 nM

## O=c1n(Cc2ccc(-c3nnc(C(F)F)o3)cn2)c2ccc(-c3ccncc3)cc2n1C1CCN(C2COC2)CC1 [Compound 282, 1-((5-(5-(difluoromethyl)-1,3,4-oxadiazole-2-yl)pyridine-2-yl)methyl)-3-(1-(oxetan-3-yl)piperidine-4-yl)-5-(pyridine-4-yl)-1,3-dihydro-2H-benzo[d]imidazole-2-one]
[1]
  IC50: 16 nM
[2]
  IC50: > 10000 nM

## O=c1sc2cc(Br)ccc2n1Cc1ccc(-c2nnc(C(F)F)o2)cn1 [Compound 230, 6-bromo-3-((5-(5-(difluoromethyl)-1,3,4-oxadiazole-2-yl)pyridine-2-yl)methyl)benzo[d]thiazole-2(3H)-one]
[1]
  IC50: 16 nM
[2]
  IC50: > 10000 nM

## CC(C)(C)OC(=O)N1CCC(n2cc(-c3ccc4c(c3)sc(=O)n4Cc3ccc(-c4nnc(C(F)F)o4)cn3)cn2)CC1 [Compound 352, tert-butyl 4-(4-(3-((5-(5-(difluoromethyl)-1,3,4-oxadiazole-2-yl)pyridine-2-yl)methyl)-2-oxo-2,3-dihydrobenzo[d]thiazole-6-yl)-1H-pyrazole-1-yl)piperidine-1-carboxylate]
[1]
  IC50: 170 nM
[2]
  IC50: > 10000 nM
